# “Also recorded” adds a separate entry of the source.
# How the values were obtained:
# [1] = tested on: Mia-Paca2 human pancreatic tumour xenografts; assay: MiaPaca-2 tumour xenograft; type: in vivo, CD1 nu/nu female mice
# Experimental: CD1 nu/nu female mice (7-8 weeks old) were housed in microisolator cages, fed with commercial mouse food (Food Harlam 2018, Madison, USA) and allowed to acclimatise for seven days before any procedure. Exponentially growing MiaPaca-2 cells (5×10^6 cell/100 uL unsupplemented RPMI) were inoculated subcutaneously into the right flank (100 uL per mice). Measurements of tumour growth were carried out at least twice a week with digital callipers until tumour masses reached an average size of 0.1 cm^3. Tumour volume was calculated by using the standard formula for determining the volume of an ellipsoid ([length×width×depth×π]/6)).
# (§1) In a first experiment, mice were allocated into groups (six mice per group) as follows: control group (IV 100 uL/10g sterile PBS) and single dose of 20 mg/kg of 3d (IV 100 uL/10 g body weight in sterile PBS).
# (§2) In a subsequent experiment using CD1 nu/nu female mice as described above, mice were allocated into groups (six mice per group) as follows: control group (IV 100 uL/10 g sterile PBS) and 3d at 15 mg/kg given once weekly. […] In the control group the median time to endpoint was 42 days compared to 79 days in the treated group.
# [2] = tested on: 83 human genes involved in telomere replication and maintenance in Mia-PaCa2 cells; assay: qPCR array, telomere replication and maintenance genes; type: cell-based
# Experimental: (§3) Following compound exposure, cells were washed twice in PBS, harvested by trypsinisation, collected by centrifugation (300 g, 5 min, 4° C.) and re-suspended in RLT buffer (Qiagen). Samples were homogenised using QIAshredder spin columns and stored at −80° C. prior to RNA extraction. Three biological replicates were performed on separate days.
# (§4) The expression of (i) 83 key human genes involved in telomere replication and maintenance, and (ii) 83 human genes involved in DNA damage signaling responses, was assessed using PCR arrays (SABiosciences). Total RNA was extracted from approximately 1×10^7 Mia-PaCa2 cells treated for 24 h with compound 3d, using the RNeasy kit (Qiagen) with on-column DNaseI treatment to remove residual genomic DNA. The quality of the harvested RNA was confirmed by nanodrop spectroscopy and by analysis with a Human RT^2 RNA QC PCR Array. First-strand cDNA synthesis was performed with the RT^2 first strand kit and qPCR was carried out using the RT^2 qPCR master mix (Qiagen) using 0.5 μg total RNA per array plate in a Stratagene MX-3000P instrument (Agilent, USA). Relative gene expression was determined by the ΔΔCT method using the web-based RT^2 Profiler™ PCR Array Data Analysis software (SABiosciences). Data were normalized to the geometric mean of five housekeeping genes (RPLP10, β-actin, B2M, GAPDH and HPRT1).
# Dose-response curves were used to guide the choice of compound concentration and time-points for the array experiments (FIG. 2a). […] To explore this response continuum the transcriptional signature of cells exposed for 24 h to 20 nM, 40 nM, 80 nM concentrations of 3d, or solvent alone as control, was analysed as described in Materials and Methods.
# However, changes in transcript abundance were modest, with only seven of these genes (MYC, NHP2, PPARG, PRKCB, PTEGES3, RASSF1 and SLX4) showing greater than two-fold abundance changes (FIGS. 2d and 2e).
# [3] = tested on: 83 human genes involved in DNA damage signaling responses in Mia-PaCa2 cells; assay: qPCR array, DNA damage signaling response genes; type: cell-based
# Experimental: as §3, §4
# Various quadruplex-stabilising agents are known to induce pronounced DNA damage responses. We therefore next assessed the effect of 3d on the transcription of genes associated with DNA damage response and repair pathways. For these pathways the effect of a cytotoxic dosage of 3d (160 nM) on Mia-PaCa2 cells was also tested to assess the correlation between compound-induced DNA damage and cell killing. […] The latter two groups appeared to reflect a dynamic switch in the cellular response from low-level growth inhibition up to 40 nM of 3d to cytostatic then cytotoxic effects at 80 nM and 160 nM respectively.
# Instead the response was dominated by genes with roles in growth arrest and more general stress responses.
# [4] = Tolerability and body weight in xenograft study; type: in vivo
# Experimental: as §1, §2
# A549 (lung) cells = assay: SRB growth inhibition assay, 96 hr exposure, A549; type: cell-based, human; conditions: Homo sapiens, A549, 96 h exposure
# Procedure, shortened: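 SRB growth inhibition was measured after 96 h exposure to 2-fold serial dilutions of compound, with cells maintained at 37 °C in 5% CO2 and medium containing 10% FBS. Absorbance at 540 nm was expressed as a percentage of untreated control wells. IC50 was derived from these values.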
# [5] = tested on: MiaPaCa2 (pancreatic) cells; assay: SRB growth inhibition assay, MiaPaCa2; type: cell-based, human
# Procedure, shortened: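 Growth inhibition of MiaPaCa2 cells was measured by SRB staining after 96 h exposure to 2-fold serial dilutions of compound dissolved in DMSO. IC50 was derived from mean absorbance at 540 nm expressed as a percentage of untreated control wells.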
smiles,measurement,setting,value
"CN1CCN(CCCNc2cc3c4c(c(NCCCN5CCN(C)CC5)cc5c4c2C(=O)N(CCCN2CCOCC2)C5=O)C(=O)N(CCCN2CCOCC2)C3=O)CC1 [Compound 3d, 4,9-bis((3-(4-methylpiperazin-1-yl)propyl)amino)-2,7-bis(3-morpholinopropyl)benzo[lmn][3,8]phenanthroline-1,3,6,8(2H,7H)-tetraone]",antitumour response,[1]; 15 mg/kg once weekly,sustained antitumour response
same,median time to endpoint,"[1]; 15 mg/kg once weekly, control group 42 days",79 days
same,"mice with a complete response, tumour free at 136 days","[1]; 15 mg/kg once weekly, of six mice",two
same,tumour growth compared to untreated controls,[1]; single dose 20 mg/kg IV,significant growth delay
same,number of telomere maintenance genes with greater than two-fold abundance changes,"[2]; 20, 40 or 80 nM, 24 h",seven
same,expression of the gene encoding POT1,[2]; borderline of statistical significance,down-regulation
same,number of telomere maintenance genes up or down-regulated to a statistically significant level (P<0.05),"[2]; of 83 genes, 20, 40 or 80 nM, 24 h",30 genes
same,expression of DNA damage checkpoint genes ATM and ATR,[3]; 24 h,no significant induction or repression
same,induction of γ-H2AX,"[3]; Mia-PaCa2 cells, data not shown",no apparent induction; also recorded: do not appear to induce these particular changes
same,"expression of CDKN1A, DDIT3 and GADD45G",[3]; cytotoxic concentrations,strongly up-regulated
same,expression of the PARP gene,[3]; dose-dependent,down-regulated
same,"expression of CDKN1A, DDIT3 and GADD45G",[3]; lower concentrations,strongly down-regulated
same,number of DNA damage response genes significantly increased or decreased greater than 2-fold,"[3]; of 83 genes, 20, 40, 80 or 160 nM, 24 h",16 genes
same,tolerability of therapy,[4]; 15 mg/kg once weekly,well tolerated
same,bodyweight loss,[4]; single dose 20 mg/kg or 15 mg/kg once weekly,without any significant bodyweight loss
same,IC50,A549 (lung) cells,10 to 20 nM
same,selectivity for Mia-PaCa2 compared to the normal fibroblast line WI-38,[5],~20 fold
same,IC50,"[5]; Homo sapiens, MIA PaCa-2, SRB assay, 96 h exposure, read-out: IC50 Mia-PaCa2",10 to 20 nM
same,growth response of MiaPaCa2 cells,[5]; exposure to 80 nM,no growth recovery
same,growth response of MiaPaCa2 cells,[5]; exposure to 160 nM,no viable cells could be recovered by 72 h
same,growth response of MiaPaCa2 cells,[5]; exposure to between 5 nM and 40 nM,titratable growth inhibition with subsequent full recovery of confluent growth at 144 h

# — patent US9493460B2, “Diimide compounds” (UCL BUSINESS PLC, priority 2013, dated 2016)
